Patent US6696559B1, “Antimicrobial peptides and methods of use” (The Regents of the University of California, priority 1996, dated 2004)
Entries after “also recorded” stand apart in the source; their conditions may differ. Where no end group is shown, it is not given here.

Assays:
S. aureus 502A = test: microbicidal suspension assay; type: cell-based
Method: (§1) Antimicrobial assay. E. coli ML35, S. aureus 502A, C. albicans, and C. neoformans were used as target organisms in a microbicidal suspension assay as previously described (Selsted, M. E., Genetic Engineering: Principles and Methods, J. K. Setlow, Plenum Press, New York, 1993, pp. 131-147).
(§2) Natural and synthetic BGP-A and synthetic BGP-A-amide were tested for their microbicidal activities against S. aureus 502A, E. coli ML35, C. albicans, and C. neoformans. Using a microbicidal suspension assay (Selsted, M. E., Genetic Engineering: Principles and Methods, J. K. Setlow, Plenum Press, New York, 1993, pp.131-147), each peptide was tested against the four test organisms with peptide concentrations ranging from 5-100 μg/ml. The bactericidal and fungicidal activities of the three peptide preparations were assessed using a standard microbicidal assay. Organisms were grown to mid-log phase, harvested, and suspended to 2×10^7 CFU/ml. The incubation mixture contained 1-2×10^6 CFU/ml, 10 mM sodium phosphate buffer, pH 7.4, and peptide at concentrations up to 100 μg/ml. After 1 h of incubation at 37° C. (4 h incubations for C. neoformans), serial 10-fold dilutions were plated on Trypticase Soy Agar (bacteria) or S. abaraud dextrose agar (fungi), and incubated for 24-48 h at 37° C. Killing was quantitated by colony counting, and plotted as a function of peptide concentration in the incubation.

E. coli ML35 = test: microbicidal suspension assay; type: cell-based
Method: as §1, §2

C. albicans = test: microbicidal suspension assay; type: cell-based
Method: as §1, §2

C. neoformans = test: microbicidal suspension assay; type: cell-based
Method: as §1, §2

E. coli = settings: Selsted et al., J. Biol. Chem. 267:4292-4295, 1992; cited from earlier work
S. aureus = settings: Selsted et al., J. Biol. Chem. 267:4292-4295, 1992; cited from earlier work
[1] = 1 h incubation, synthetic versus natural peptide, listed as synthetic BGP-A
[2] = peptide 5-100 μg/ml, 10 mM sodium phosphate buffer, pH 7.4, 1 h at 37° C., FIG. 7

Substance | microbicidal potency compared with natural BGP-A (S. aureus 502A; [1]) | microbicidal activity (reduction in colony forming units) (S. aureus 502A; [2]) | microbicidal potency compared with natural BGP-A (E. coli ML35; [1]) | microbicidal activity (reduction in colony forming units) (E. coli ML35; [2]) | microbicidal potency compared with natural BGP-A (C. albicans; [1]) | microbicidal activity (reduction in colony forming units) (C. albicans; [2]) | microbicidal potency compared with natural BGP-A (C. neoformans; 4 h incubation, synthetic versus natural peptide, listed as synthetic BGP-A) | microbicidal activity (reduction in colony forming units) (C. neoformans; peptide 5-100 μg/ml, 10 mM sodium phosphate buffer, pH 7.4, 4 h at 37° C., FIG. 7) | bactericidal activity (E. coli) | bactericidal activity (S. aureus)
YKIIQQWPHYRRV [BGP-A, thirteen-residue peptide antibiotic expressed in bovine granulocytes, …; tested as natural and synthetic preparations] | equal in potency; also recorded: equivalent killing activity | microbicidal | equal in potency; also recorded: equivalent killing activity | microbicidal | equal in potency; also recorded: equivalent killing activity | microbicidal | equal in potency; also recorded: equivalent killing activity | microbicidal |  | 
indolicidin: novel tridecapeptide amide from bovine neutrophils, cationic, unusually rich in tryptophan (ILPWKWPWWPWRR-NH2; UniProt P33046 131-143, looked up) |  |  |  |  |  |  |  |  | potent bactericidal activity | potent bactericidal activity
